Test results as given in patent US20260250257A1, “ANTIBACTERIAL AND SYNERGISTIC ACTIVE COMPOUND AND USE THEREOF” (EAST CHINA UNIVERSITY OF SCIENCE AND TECHNOLOGY, priority 2023, published 2026).
≈ marks a conversion by molar mass, not a printed value.

Tests used:
Assay type in all cases: cell-based
[1] = tested on: ATCC25922 strain (Escherichia coli); assay: Checkerboard antibacterial synergistic activity test with polymyxin E (FIC); set-up: key: FIC≤0.5 synergy; 0.5–1 additive; 1–2 indifferent; ≥2 antagonism; conditions: combined with polymyxin E
Procedure, shortened: (§1)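 FIC values come from a microdilution checkerboard crossing polymyxin E against the test compound in MH medium, with uninoculated blanks included. Incubation lasts 16 h at 37° C. Scoring: synergy at FIC ≤0.5, additivity between 0.5 and 1, indifference between 1 and 2, antagonism at 2 or above.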

[2] = tested on: ATCC13883 strain (Klebsiella pneumoniae); assay: as above; set-up: key: FIC≤0.5 synergy; 0.5–1 additive; 1–2 indifferent; ≥2 antagonism; conditions: combined with polymyxin E
Procedure, shortened: as §1

[3] = tested on: ATCC19606 strain (Acinetobacter baumannii); assay: as above; set-up: key: FIC≤0.5 synergy; 0.5–1 additive; 1–2 indifferent; ≥2 antagonism; conditions: combined with polymyxin E
Procedure, shortened: as §1

[4] = tested on: ATCC9027 strain (Pseudomonas aeruginosa); assay: as above; set-up: key: FIC≤0.5 synergy; 0.5–1 additive; 1–2 indifferent; ≥2 antagonism; conditions: combined with polymyxin E
Procedure, shortened: as §1

[5] = tested on: ATCC25922 strain (Escherichia coli); assay: Broth microdilution, antibacterial activity of the compound used alone; conditions: for MIC: read-out: Antibacterial activity of the compound of Formula I, ATCC25922
Description: (§2) The broth microdilution method was used to test the antibacterial effects of the compounds of the present invention against various Gram-negative bacterial strains when used alone.

[6] = tested on: ATCC13883 strain (Klebsiella pneumoniae); assay: as above; conditions: for MIC: read-out: Antibacterial activity of the compound of Formula I, ATCC13883
Description: as §2

[7] = tested on: ATCC19606 strain (Acinetobacter baumannii); assay: as above; conditions: for MIC: read-out: Antibacterial activity of the compound of Formula I, ATCC19606
Description: as §2

[8] = tested on: ATCC9027 strain (Pseudomonas aeruginosa); assay: as above; conditions: for MIC: read-out: Antibacterial activity of the compound of Formula I, ATCC9027
Description: as §2

| Compound | Synergistic activity (FIC value) ATCC25922 [1] | Synergistic activity (FIC value) ATCC13883 [2] | Synergistic activity (FIC value) ATCC19606 [3] | Synergistic activity (FIC value) ATCC9027 [4] | MIC [5] [µg/mL] | MIC [6] [µg/mL] | MIC [7] [µg/mL] | MIC [8] [µg/mL] | Antibacterial activity of the compound of Formula I, ATCC25922 [5] [µg/mL] | Antibacterial activity of the compound of Formula I, ATCC13883 [6] [µg/mL] | Antibacterial activity of the compound of Formula I, ATCC19606 [7] [µg/mL] | Antibacterial activity of the compound of Formula I, ATCC9027 [8] [µg/mL] |
| --- | --- | --- | --- | --- | --- | --- | --- | --- | --- | --- | --- | --- |
| NC(N)=Nc1nc(-c2ccccc2Oc2ccccc2)cs1 [Compound I-1, 2-(4-(2-phenoxyphenyl)thiazol-2-yl)guanidine] | 1.25 | 0.53 | 1.25 | 0.52 | 256 (≈ 825 µM) | 256 (≈ 825 µM) | 256 (≈ 825 µM) | 256 (≈ 825 µM) |  |  |  |  |
| CSc1cc2ccccn2c1-c1csc(N=C(N)N)n1 [Compound I-123] | 0.14 | 0.09 | 0.31 | 0.06 | 256 (≈ 844 µM) | 256 (≈ 844 µM) | 256 (≈ 844 µM) | 256 (≈ 844 µM) |  |  |  |  |
| CC(=O)Nc1cc(-c2csc(N=C(N)N)n2)ccc1-c1ccccc1 [Compound I-75] | 0.38 | 0.31 | 0.12 | 0.31 |  |  |  |  | 256 | 256 | 256 | 256 |
| NC(N)=Nc1nc(-c2cc(F)cc(Oc3ccc(Cl)cc3Cl)c2)cs1 [Compound I-100] | 0.15 | 0.13 | 0.02 | 0.18 |  |  |  |  | 128 | 256 | 256 | 256 |
| Cc1sc(N=C2NCCCN2)nc1-c1cc(I)cc(I)c1 [Compound I-182] | 0.56 | 0.31 | 0.25 | 0.5 |  |  |  |  | 256 | 256 | 256 | 256 |
| CCc1sc(N=C2NCCCN2)nc1-c1cc(C)c(F)c(C)c1 [Compound I-172] | 0.63 | 0.52 | 0.52 | 1.25 |  |  |  |  | 128 | 128 | 256 | 64 |
| Cc1ccc(NC(=O)Nc2cccc(-c3nc(N=C(N)N)sc3C)c2)c(C)c1 [Compound I-132] | 0.18 | 0.16 | 0.03 | 0.28 |  |  |  |  | 256 | 256 | 256 | 256 |
| Fc1ccc(-c2csc(N=C3NCCCN3)n2)c(Oc2ccc(Cl)cc2Cl)c1 [Compound I-151] | 0.18 | 0.16 | 0.03 | 0.28 |  |  |  |  | 256 | 256 | 256 | 256 |
| Clc1sc(N=C2NCCCN2)nc1-c1cccc(Br)c1 [Compound I-175] | 1.25 | 1.25 | 0.5 | 1.25 |  |  |  |  | 256 | 256 | 256 | 256 |
| Nc1cc(Oc2ccccc2)cc(-c2c[nH]c(N=C3NCCCN3)n2)c1 [Compound I-135] | 0.51 | 0.75 | 0.26 | 0.53 |  |  |  |  | 256 | 256 | 256 | 256 |
| NC(N)=Nc1nc(-c2cc(OCc3ccccc3)no2)cs1 [Compound I-113] | 0.53 | 1.25 | 1.25 | 1.25 | 128 (≈ 406 µM) | 128 (≈ 406 µM) | 256 (≈ 812 µM) | 64 (≈ 203 µM) |  |  |  |  |
| CC(C)=CCOc1cc(OCC=C(C)C)cc(-c2nc(N=C(N)N)[nH]c2C)c1 [Compound I-49] | 1.25 | 0.53 | 0.25 | 0.53 |  |  |  |  | 256 | 256 | 256 | 256 |
| NC(N)=Nc1nc(-c2cccc(Cl)c2)cs1 [Compound I-37] | 1.25 | 1.25 | 0.25 | 0.52 |  |  |  |  | 256 | 256 | 256 | 256 |
| Cc1cc(C)c2c(-c3csc(N=C(N)N)n3)cccc2c1 [Compound I-61] | 0.5 | 0.63 | 0.75 | 0.56 |  |  |  |  | 256 | 256 | 256 | 256 |
| CC(C)c1cc(-c2nc(N=C3NCCCN3)sc2Cl)cc(C(C)C)c1O [Compound I-168] | 0.5 | 0.25 | 0.28 | 0.63 |  |  |  |  | 256 | 256 | 256 | 256 |
